Experiment [1] concerns the target T1, MppR (Streptomyces hygroscopicus, UniProt Q643B8). The experiment in a line: steady-state kinetics of aldol condensation. It is filed as biochemical. The following applies: co-substrate pyruvate; no saturation below the solubility limit.
Experiment [2] deals with T1, MppR. In words: X-ray crystal structure, […] Å. It is filed as binding. The following applies: covalent; Schiff base with Lys156; 30 mM sodium pyruvate, 24 h soak.

Turning to `O=Cc1c[nH]cn1` [compound 6, 4-imidazolecarboxaldehyde], on MppR [1], the Km was above 50 mM. `CC(=O)C(=O)O` [pyruvate]: on MppR [2], the “X-ray crystal structure, 1.72 Å (crystal soak)” value is on record as “resulting structure showed pyruvate covalently bound to Lys156 as the Schiff base”.

The values above are taken from publication PMC3743547 (Biochemistry, 2013).
